Experimental data taken from patent US6890886B2, “Agricultural compositions employing organosiloxanes containing polyhydric groups” (General Electric Company, priority 2000, dated 2005).

Experiments:
[1] = Aqueous surface tension (Cahn microbalance, sand blasted platinum blade); format: physicochemical; details: 0.1 wt % in 0.005M NaCl water (deionized), 25° C.
Description: Surface tension was measured using a Cahn microbalance, with a sand blasted platinum blade as the sensor. Solutions of the various components were prepared at 0.1 wt % in 0.005M NaCl water (Deionized), as an equilibrium aid. Aqueous solutions of these unique compositions provide a significant reduction in surface tension relative to conventional surfactants.

[2] = Spreading of a 10 μL droplet of surfactant solution on polyester film; format: physicochemical; details: 10 μL droplet on polyester film (3M, IR 1140), after 30 seconds
Description: Spreading was determined by applying a 10 μL droplet of surfactant solution to a polyester film (3M, IR 1140 transparency film) and measuring the spread diameter after 30 seconds. The solution was applied with an automatic pipette to provide droplets of reproducible volume. Deionized water that was further purified with a Millipore filtration system was used to prepare the surfactant solutions.

## Me3SiO[MeSi(C3H6O(C2H4O)8H)O]1SiMe3 [SIL-A]
[1]
  Surface Tension (mN/m): 21 mN/m
[2]; 0.1 wt% solution
  Spread Diameter (mm) 0.1 wt%: 44 mm
[2]; 0.2 wt% solution
  Spread Diameter (mm) 0.2 wt%: 42 mm
